Results on 9 substances are retold here after patent US8450441B2, “Synthetic N-linked sialo-glycan-containing polymer and method for producing the same” (priority 2007, dated 2013).

Assay [1] has as its system A/Duck/HK/313/4/78 (H5N3). The format is cell-based, Influenza A virus (Avian strain). The settings on record: read-out: HI activity IC50.
The subject of assay [2] is A/Aichi/2/68 (H3N2). Type of assay: cell-based, Influenza A virus (Human strain). To be noted: for IC50: read-out: HI activity IC50.

A word on the IC50: it is the concentration needed to halve the response being measured. “Poly[Neu5Ac α2-3lacto-N-neotetraosylamine β-N-(ε-aminocaproyl)/γ-PGA]”: the results for the concentration for half-maximal inhibition (IC50) in assay [1] and in assay [2] were 37.5 nM and 18.8 nM, respectively.

Turning to “Poly[N-(ε-aminocaproyl)-β-lacto-N-neotetraosylamine/-γ-PGA]]”, the half-maximal inhibitory concentration (IC50) in assay [1] and in assay [2] was more than 200 nM throughout.

As for “Poly[Neu5Ac α2-6-lacto-N-neotetraosylamine β-N-(ε-aminocaproyl)/γ-PGA]”, the values for the IC50 in assay [1] and in assay [2] were more than 200 nM and 0.29 nM, respectively. For the same substance, the “inhibition activity of human influenza virus infection compared with Poly[Neu5Ac α2-6-LacNAc β-N-(ε-aminocaproyl/γ-PGA]” value in assay [2] was “many more times greater”.

With “Poly[Neu5Ac α2-3-N-acetyllactosaminylamine β-N-(ε-aminocaproyl)/γ-PGA]”, the IC50 in assay [1] and in assay [2] was 37.5 nM in each case.

With “Poly[Neu5Ac α2-6-N-acetyllactosaminylamine β-N-(ε-aminocaproyl)/γ-PGA]”, in assay [1], the half-inhibitory concentration (IC50) is more than 200 nM. Besides, in assay [2], the “inhibition activity of human influenza virus infection compared with conventional O-linked sialo-glycan-containing polymer” value is “many times greater” and the IC50 was 1.2 nM.

As to “Poly[N-(ε-aminocaproyl)-β-N-acetyllactosaminylamine/-γ-PGA]]”, the IC50 in assay [1] and in assay [2] was more than 200 nM in each case.

With “Poly[Neu5Ac α2-6lactosylamine β-N-(ε-aminocaproyl)/γ-PGA]”, the values for the half-inhibitory concentration (IC50) in assay [1] and in assay [2] were more than 200 nM and 4.7 nM, respectively.

For the substance “Poly[N-(ε-aminocaproyl)-β-lactosylamine/-γ-PGA]]”, the IC50 in assay [1] and in assay [2] was more than 200 nM each time.

As for “Poly[Neu5Ac α2-3lactosylamine β-N-(ε-aminocaproyl)/γ-PGA]”, the half-maximal inhibitory concentration (IC50) in assay [1] and in assay [2] was 37.5 nM throughout.
